Assay: in vitro release study of TKI from ocular implants (polymer composites)
Format: physicochemical
Conditions: for burst release at day 1 / period of release at the stated rate: formulation of 50% polymer (RG755 or RG504) and 50% TKI; for time over which the ocular composite continues to release the TKI / release of the TKI from the ocular implant (percent of TKI): phosphate buffered saline release medium pH 7.4, 37° C.; for release of the TKI from the ocular implant (percent of TKI): within 30 days
Method: The in vitro release study was carried out in an incubator at 37° C. shaking at 120 rpm.
The release medium was 0.02% Polysorbate 80 containing 10 mM phosphate buffered saline, pH7.4. The medium and implants were placed in 20 mL scintillation vials. At given time points, the medium containing released drug was collected and replaced with fresh medium. The concentration of the compound in the release medium was analyzed using HPLC.

Row | burst release at day 1 | period of release at the stated rate | time over which the ocular composite continues to release the TKI [months] | release of the TKI from the ocular implant (percent of TKI) | Compound
1 | minimal burst release | approximately 50 days | > 6 | 2-12% | Cc1cc(C(=O)Nc2cccc(C(=O)c3ccc4c(c3)NC(=O)C4=CNc3ccc(CN4CCCC4)cc3)c2)n(C)n1 [Example 206, 2,5-Dimethyl-2H-pyrazole-3-carboxylic acid (3-{2-oxo-3-[(4-pyrrolidin-1-ylmethyl-phenylamino)-methylene]-2,3-dihydro-1H-indole-6-carbonyl}-phenyl)-amide]
2 |  |  | > 6 | 2-8% | Cc1cc(C(=O)Nc2cccc(C(=O)c3ccc4c(c3)NC(=O)C4=CNc3ccc(CCCC(=O)O)cc3)c2)n(C)n1 [Example 324, 4-{4-[(6-{3-[(2,5-Dimethyl-2H-pyrazole-3-carbonyl)-amino]-benzoyl}-2-oxo-1,2-dihydro-indol-3-ylidenemethyl)-amino]-phenyl}-butyric acid]
3 | minimal burst release | approximately 50 days | > 6 | 29-35% | Cc1ccoc1C(=O)Nc1cccc(C(=O)c2ccc3c(c2)NC(=O)C3=CNc2ccc(CCC(=O)[O-])cc2)c1.[Na+] [Example 378, 3-{4-[(6-{3-[(3-Methyl-furan-2-carbonyl)-amino]-benzoyl}-2-oxo-1,2-dihydro-indol-3-ylidenemethyl)-amino]-phenyl}-propionic acid, sodium salt]

Reference: patent US7749530B2, “Kinase inhibitors” (Allergan, Inc., priority 2005, dated 2010)
